From PubChem BioAssay (NCI)
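Compound exposure: 48 hours, 5 concentrations, 96-well plates. TGI marks complete inhibition of growth.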

How the values were obtained:
Experiment in all cases: NCI tumour cell line growth inhibition, 48 h
NCI-H23 lung = tested on: NCI-H23 lung
T-47D breast = tested on: T-47D breast
HS 578T breast = tested on: HS 578T breast
SW-620 colon = tested on: SW-620 colon
RPMI-8226 leukemia = tested on: RPMI-8226 leukemia
OVCAR-3 ovarian = tested on: OVCAR-3 ovarian
BT-549 breast = tested on: BT-549 breast
786-0 renal = tested on: 786-0 renal
SK-MEL-5 melanoma = tested on: SK-MEL-5 melanoma
UO-31 renal = tested on: UO-31 renal
LOX IMVI melanoma = tested on: LOX IMVI melanoma
ACHN renal = tested on: ACHN renal
MALME-3M melanoma = tested on: MALME-3M melanoma
OVCAR-8 ovarian = tested on: OVCAR-8 ovarian
UACC-257 melanoma = tested on: UACC-257 melanoma
SR leukemia = tested on: SR leukemia
MDA-MB-231 breast = tested on: MDA-MB-231 breast
CCRF-CEM leukemia = tested on: CCRF-CEM leukemia
HCT-116 colon = tested on: HCT-116 colon
K-562 leukemia = tested on: K-562 leukemia
MDA-MB-435 = tested on: MDA-MB-435
U251 CNS = tested on: U251 CNS
SK-MEL-28 melanoma = tested on: SK-MEL-28 melanoma
MDA-N = tested on: MDA-N
NCI-H522 lung = tested on: NCI-H522 lung
OVCAR-5 ovarian = tested on: OVCAR-5 ovarian
NCI-H460 lung = tested on: NCI-H460 lung
SK-MEL-2 melanoma = tested on: SK-MEL-2 melanoma
SF-268 CNS = tested on: SF-268 CNS
EKVX NSCLC = tested on: EKVX NSCLC
RXF 393 renal = tested on: RXF 393 renal
SNB-19 CNS = tested on: SNB-19 CNS
HOP-92 NSCLC = tested on: HOP-92 NSCLC
MCF7 breast = tested on: MCF7 breast
SF-295 CNS = tested on: SF-295 CNS
HCT-15 colon = tested on: HCT-15 colon
SK-OV-3 ovarian = tested on: SK-OV-3 ovarian
NCI-H226 lung = tested on: NCI-H226 lung
UACC-62 melanoma = tested on: UACC-62 melanoma
SN12C renal = tested on: SN12C renal
CAKI-1 renal = tested on: CAKI-1 renal
HCC-2998 colon = tested on: HCC-2998 colon
NCI/ADR-RES ovarian = tested on: NCI/ADR-RES ovarian
HOP-62 NSCLC = tested on: HOP-62 NSCLC
IGROV1 ovarian = tested on: IGROV1 ovarian
OVCAR-4 ovarian = tested on: OVCAR-4 ovarian
M14 melanoma = tested on: M14 melanoma
SNB-75 CNS = tested on: SNB-75 CNS
SF-539 CNS = tested on: SF-539 CNS
TK-10 renal = tested on: TK-10 renal
DU-145 prostate = tested on: DU-145 prostate
COLO 205 colon = tested on: COLO 205 colon
MOLT-4 leukemia = tested on: MOLT-4 leukemia
HT29 colon = tested on: HT29 colon
A498 renal = tested on: A498 renal
A549 NSCLC = tested on: A549 NSCLC
HL-60(TB) leukemia = tested on: HL-60(TB) leukemia
KM12 colon = tested on: KM12 colon
PC-3 prostate = tested on: PC-3 prostate

## CCCCCC(O)(CCCCC)CCCCCCCCC1=C(O)c2ccccc2C(=O)C1=O
NCI-H23 lung
  TGI: 21.9 µM
T-47D breast
  TGI: 75.2 µM
HS 578T breast
  TGI: 54.5 µM
SW-620 colon
  TGI: 32 µM
RPMI-8226 leukemia
  TGI: 11.5 µM
OVCAR-3 ovarian
  TGI: 29.4 µM
BT-549 breast
  TGI: 39.6 µM
786-0 renal
  TGI: 30.5 µM
SK-MEL-5 melanoma
  TGI: 14.5 µM
UO-31 renal
  TGI: 28 µM
LOX IMVI melanoma
  TGI: 18 µM
ACHN renal
  TGI: > 100 µM
MALME-3M melanoma
  TGI: 28.6 µM
OVCAR-8 ovarian
  TGI: 33 µM
UACC-257 melanoma
  TGI: > 66.5 µM
SR leukemia
  TGI: 13.9 µM
MDA-MB-231 breast
  TGI: 32 µM
CCRF-CEM leukemia
  TGI: > 100 µM
HCT-116 colon
  TGI: 15.2 µM
K-562 leukemia
  TGI: 21.6 µM
MDA-MB-435
  TGI: > 62.4 µM
U251 CNS
  TGI: 14.5 µM
SK-MEL-28 melanoma
  TGI: > 46.2 µM
MDA-N
  TGI: 31.3 µM
NCI-H522 lung
  TGI: 67.9 µM
OVCAR-5 ovarian
  TGI: 46.1 µM
NCI-H460 lung
  TGI: 17.7 µM
SK-MEL-2 melanoma
  TGI: 27.7 µM
SF-268 CNS
  TGI: 33.7 µM
EKVX NSCLC
  TGI: 60.1 µM
RXF 393 renal
  TGI: 29.9 µM
SNB-19 CNS
  TGI: 24.9 µM
HOP-92 NSCLC
  TGI: 33.6 µM
MCF7 breast
  TGI: 23.6 µM
SF-295 CNS
  TGI: 40.5 µM
HCT-15 colon
  TGI: 15.6 µM
SK-OV-3 ovarian
  TGI: > 64.1 µM
NCI-H226 lung
  TGI: 36.4 µM
UACC-62 melanoma
  TGI: 21.1 µM
SN12C renal
  TGI: 23.5 µM
CAKI-1 renal
  TGI: > 56.1 µM
HCC-2998 colon
  TGI: 30.5 µM
NCI/ADR-RES ovarian
  TGI: 21.8 µM
HOP-62 NSCLC
  TGI: 25.6 µM
IGROV1 ovarian
  TGI: 26.4 µM
OVCAR-4 ovarian
  TGI: > 48.8 µM
M14 melanoma
  TGI: 24.8 µM
SNB-75 CNS
  TGI: > 80.2 µM
SF-539 CNS
  TGI: 27.5 µM
TK-10 renal
  TGI: > 75.5 µM
DU-145 prostate
  TGI: 25.7 µM
COLO 205 colon
  TGI: 42.4 µM
MOLT-4 leukemia
  TGI: 12.4 µM
HT29 colon
  TGI: 27.9 µM
A498 renal
  TGI: 21.5 µM
A549 NSCLC
  TGI: > 53.6 µM
HL-60(TB) leukemia
  TGI: 14 µM
KM12 colon
  TGI: 19.4 µM
PC-3 prostate
  TGI: 24.6 µM

## COC(=O)c1c(O)ccc2c1c1c(n2Cc2ccccn2)C(=O)c2ccccc2C1=O
NCI-H23 lung
  TGI: > 100 µM
T-47D breast
  TGI: > 100 µM
HS 578T breast
  TGI: > 100 µM
RPMI-8226 leukemia
  TGI: > 100 µM
OVCAR-3 ovarian
  TGI: 64.8 µM
BT-549 breast
  TGI: > 100 µM
786-0 renal
  TGI: > 100 µM
SK-MEL-5 melanoma
  TGI: > 100 µM
UO-31 renal
  TGI: > 100 µM
ACHN renal
  TGI: 58.1 µM
MALME-3M melanoma
  TGI: 89.8 µM
OVCAR-8 ovarian
  TGI: > 100 µM
UACC-257 melanoma
  TGI: > 100 µM
SR leukemia
  TGI: 64.2 µM
MDA-MB-231 breast
  TGI: > 100 µM
CCRF-CEM leukemia
  TGI: > 100 µM
HCT-116 colon
  TGI: > 100 µM
K-562 leukemia
  TGI: > 100 µM
MDA-MB-435
  TGI: > 100 µM
U251 CNS
  TGI: > 100 µM
SK-MEL-28 melanoma
  TGI: 99.2 µM
MDA-N
  TGI: > 100 µM
NCI-H522 lung
  TGI: 95.6 µM
OVCAR-5 ovarian
  TGI: > 100 µM
NCI-H460 lung
  TGI: > 100 µM
SK-MEL-2 melanoma
  TGI: > 100 µM
SF-268 CNS
  TGI: > 100 µM
EKVX NSCLC
  TGI: > 100 µM
RXF 393 renal
  TGI: > 100 µM
SNB-19 CNS
  TGI: > 100 µM
HOP-92 NSCLC
  TGI: > 100 µM
MCF7 breast
  TGI: > 100 µM
SF-295 CNS
  TGI: 70.6 µM
HCT-15 colon
  TGI: > 100 µM
SK-OV-3 ovarian
  TGI: 61.1 µM
NCI-H226 lung
  TGI: > 100 µM
UACC-62 melanoma
  TGI: > 100 µM
SN12C renal
  TGI: > 100 µM
CAKI-1 renal
  TGI: > 100 µM
HCC-2998 colon
  TGI: 35 µM
NCI/ADR-RES ovarian
  TGI: > 100 µM
HOP-62 NSCLC
  TGI: 77.7 µM
IGROV1 ovarian
  TGI: > 100 µM
M14 melanoma
  TGI: > 100 µM
SF-539 CNS
  TGI: 42.9 µM
TK-10 renal
  TGI: > 100 µM
DU-145 prostate
  TGI: > 100 µM
COLO 205 colon
  TGI: 34.3 µM
MOLT-4 leukemia
  TGI: > 100 µM
HT29 colon
  TGI: 17.4 µM
A498 renal
  TGI: > 100 µM
A549 NSCLC
  TGI: > 100 µM
HL-60(TB) leukemia
  TGI: > 100 µM
KM12 colon
  TGI: > 100 µM
PC-3 prostate
  TGI: > 100 µM
